From patent US10662187B2, “Bruton's tyrosine kinase inhibitors” (Zibo Biopolar Changsheng Pharmaceutical Co. Ltd., priority 2016, dated 2020)

Legend:
BTK [1] = molecular target: T1, BTK (Homo sapiens (Human), UniProt Q06187); assay: Btk kinase assay (HTRF); type: biochemical; conditions: [ATP]=80 μM, BTK=3.4 nM; read-out: BTK Inhibition
In short: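 HTRF read-out with enzyme, inhibitor, ATP and 1 μM peptide substrate in 50 mM Hepes pH 7.0, 0.02% NaN3, 0.01% BSA, 0.1 mM orthovanadate. Activity measured across compound concentrations against no-inhibitor controls, with no-enzyme wells as baseline.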
Target sequence in this assay (Q06187 whole entry, species assumed): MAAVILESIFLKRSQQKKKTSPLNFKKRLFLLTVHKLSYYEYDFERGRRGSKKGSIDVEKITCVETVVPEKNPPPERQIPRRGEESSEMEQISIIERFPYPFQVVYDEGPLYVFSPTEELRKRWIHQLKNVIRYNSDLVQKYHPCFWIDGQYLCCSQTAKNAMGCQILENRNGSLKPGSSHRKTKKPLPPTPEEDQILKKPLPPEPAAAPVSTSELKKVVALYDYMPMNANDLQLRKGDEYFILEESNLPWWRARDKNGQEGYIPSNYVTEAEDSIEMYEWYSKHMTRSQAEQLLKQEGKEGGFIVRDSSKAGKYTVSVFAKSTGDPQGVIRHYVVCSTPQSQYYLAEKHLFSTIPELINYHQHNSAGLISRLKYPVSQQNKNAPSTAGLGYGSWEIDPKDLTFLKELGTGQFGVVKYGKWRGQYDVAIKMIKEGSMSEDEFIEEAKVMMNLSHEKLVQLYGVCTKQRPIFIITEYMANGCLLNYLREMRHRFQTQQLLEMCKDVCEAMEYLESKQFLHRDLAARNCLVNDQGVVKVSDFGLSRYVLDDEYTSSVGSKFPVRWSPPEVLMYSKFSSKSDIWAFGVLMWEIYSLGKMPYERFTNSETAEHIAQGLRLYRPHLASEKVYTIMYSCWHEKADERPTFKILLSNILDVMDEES

Btk [2] = molecular target: Btk (Mus musculus (Mouse), UniProt P35991); assay: Btk occupancy in vivo (PBMCs or splenocytes, PCI-33380 labeling); conditions: after 4 hours, Babc/L mice
Chain of Btk (P35991 whole entry): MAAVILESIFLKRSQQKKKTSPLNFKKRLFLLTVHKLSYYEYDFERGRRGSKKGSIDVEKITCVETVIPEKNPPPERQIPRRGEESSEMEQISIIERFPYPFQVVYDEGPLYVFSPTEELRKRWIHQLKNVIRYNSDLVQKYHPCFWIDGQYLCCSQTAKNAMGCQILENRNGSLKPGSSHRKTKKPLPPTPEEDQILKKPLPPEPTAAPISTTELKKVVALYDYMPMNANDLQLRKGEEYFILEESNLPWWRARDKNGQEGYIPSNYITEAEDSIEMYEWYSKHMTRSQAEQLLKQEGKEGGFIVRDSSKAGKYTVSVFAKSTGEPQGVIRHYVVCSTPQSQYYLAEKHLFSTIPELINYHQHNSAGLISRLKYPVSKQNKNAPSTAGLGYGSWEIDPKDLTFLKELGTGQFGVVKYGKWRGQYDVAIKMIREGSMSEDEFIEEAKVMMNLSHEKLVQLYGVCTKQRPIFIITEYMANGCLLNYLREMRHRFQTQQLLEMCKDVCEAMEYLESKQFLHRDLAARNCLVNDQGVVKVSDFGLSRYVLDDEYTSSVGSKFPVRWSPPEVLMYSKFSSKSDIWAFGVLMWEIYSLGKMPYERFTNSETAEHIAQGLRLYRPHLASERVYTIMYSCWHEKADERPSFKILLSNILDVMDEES
Protocol: For analysis of Btk occupancy in Babc/L mice following oral dosing of compounds after 4 hours. Isolating peripheral blood mononuclear cells (PBMCs) with mouse peripheral blood separation kit (Hao Yang Biological Manufacture CO., LTD, Tianjin) were collected from Babc/L mice (1 ml blood from two mice). Spleens were processed to splenocytes followed by 5 min incubation in red blood cell lysing buffer (from mouse peripheral blood separation kit). PBMCs or splenocytes were then PCI-33380-labeled and lysates analyzed by fluorescent gel scanning as described in cellular assays.

BTK [3] = molecular target: T1, BTK; assay: Btk occupancy in cellular assays (PCI-33380 labeling, Jeko-1 cells); type: cell-based; conditions: 1.5 h pre-incubation with compound, PCI-33380 5 μM 1 h
Protocol: Btk Occupancy in Cellular Assays
For PCI-33380 labeling of human B cells, 10^6 Jeko-1 cells were pre-incubated with compound for 1.5 h before labeling. Then cells were treated with PCI-33380 at 5 μM for 1 h. Washed, lysed in Ripa buffer containing sample reducing agent, and analyzed by SDS/PAGE and fluorescent gel scanning using a Typhoon scanner 9500 (GE Healthcare) (Ex, 532 nm; Em, 555 nm). The gel was then blotted and total Btk levels detected by standard Western blot with Btk antibody (CST).
Target sequence in this assay (Q06187 whole entry): as the sequence (Q06187 whole entry, species assumed) above

Ramos cells = assay: Calcium flux assay, anti-IgM stimulated Ramos cells; type: cell-based; conditions: Ramos cells stimulated with goat anti-human IgM antibody 10 μg/ml; read-out: Ramos Ca Flux
Protocol: Calcium FluxAssay Calcium flux fluorescence-based assays were performed in […] (Hamamatsu Photonics) fluorometric imaging plate reader according to manufacturer instructions. […] Then 12.5 […] 2× dye loading solution (Fluo-4 NW Calcium Assay Kits, Invitrogen) was added per well of a 384-well plate. Afterwards, actively growing Ramos cells (ATCC) in RPM1640 medium supplemented with 10% FBS (Invitrogen) were washed and re-plated in assay buffer (from Fluo-4 NW Calcium Assay Kits, Invitrogen) to approximately 6.4×10^6/ml (80000 cells/12.5 μL in 384-well plates). The plates were incubated at 37° C. for 30 minutes, then at room temperature for an additional 30 minutes. The plates were now ready to be used in an experiment. Immediately after the transfer and a 10-s recording of baseline fluorescence, the compound treated cells were stimulated with a goat anti-human IgM antibody (10 μg/ml; Jackson Immuno Research) and read in a FDSS for 240 seconds. Difference between the signal and that at baseline, designated adjusted relative fluorescence unit, was calculated by using a custom Excel (Microsoft, Redmond, Wash.) template to determine IgM-induced calcium influx and its inhibition by compounds. The table belows show the result.

Question: What does the source list for `C=CC(=O)N1CCC[C@@H](n2nc(-c3ccc(Oc4cccc(OC)c4F)cc3)c3cncc(OCC)c32)C1` [Compound 73, (R)-1-(3-(7-ethoxy-3-(4-(2-fluoro-3-methoxyphenoxy)phenyl)-1H-pyrazolo[4,3-c]pyridin-1-yl)piperidin-1-yl)prop-2-en-1-one]?
Answer: IC50 (BTK [1]): < 10 nM; Btk occupancy in vivo (Btk [2]; 5 mg/kg single oral dose): full occupancy; concentration sufficient to fully occupy the active site of Btk (BTK [3]): 100 nM

Question: `C=CC(=O)N1CCC[C@@H](n2nc(-c3ccc(Oc4cccc(OC)c4Cl)cc3)c3cnccc32)C1` [Compound 2, (R)-1-(3-(3-(4-(2-chloro-3-methoxyphenoxy)phenyl)-1H-pyrazolo[4,3-c]pyridin-1-yl)piperidin-1-yl)prop-2-en-1-one] was tested. Which IC50 (BTK [1]) did it give?
Answer: The IC50 was less than 10 nM.

Question: And the “Btk occupancy in vivo” value (Btk [2]; 10 mg/kg single oral dose)?
Answer: The value was “full occupancy”.

Question: What about the “concentration sufficient to fully occupy the active site of Btk” value (shortened to “concentration sufficient”) (BTK [3]) of the same compound?
Answer: Its value is 100 nM.

Question: Which IC50 (BTK [1]) does the source give for `C=CC(=O)N1CC[C@@H](n2nc(-c3ccc(Oc4cccc(Cl)c4F)cc3)c3cnccc32)C1` [Compound 19, (R)-1-(3-(3-(4-(3-chloro-2-fluorophenoxy)phenyl)-1H-pyrazolo[4,3-c]pyridin-1-yl)pyrrolidin-1-yl)prop-2-en-1-one] here?
Answer: Its IC50 is less than 10 nM.

Question: What about the IC50 (Ramos cells) of the same compound?
Answer: Its IC50 is 10 to 100 nM.

Question: What does the source list for `C=CC(=O)N1CC[C@@H](n2nc(-c3ccc(Sc4cccc(F)c4)cc3)c3cnccc32)C1` [Compound 58, (R)-1-(3-(3-(4-((3-fluorophenyl)thio)phenyl)-1H-pyrazolo[4,3-c]pyridin-1-yl)pyrrolidin-1-yl)prop-2-en-1-one]?
Answer: IC50 (BTK [1]): < 10 nM; IC50 (Ramos cells): 10 to 100 nM

Question: With `C=CC(=O)N1CC[C@@H](n2nc(-c3ccc(Oc4cccc(F)c4)cc3)c3cnccc32)C1` [Compound 63, (R)-1-(3-(3-(4-(3-fluorophenoxy)phenyl)-1H-pyrazolo[4,3-c]pyridin-1-yl)pyrrolidin-1-yl)prop-2-en-1-one] as the compound, how does the IC50 (BTK [1]) read?
Answer: Its IC50 is less than 10 nM.

Question: What about the IC50 (Ramos cells) of the same compound?
Answer: Its IC50 is 100 to 1000 nM.

Question: Which IC50 (BTK [1]) does the source give for `C=CC(=O)N1CCC[C@@H](n2nc(-c3ccc(Oc4cccc(OC)c4F)cc3)c3cnccc32)C1` [Compound 71, (R)-1-(3-(3-(4-(2-fluoro-3-methoxyphenoxy)phenyl)-1H-pyrazolo[4,3-c]pyridin-1-yl)piperidin-1-yl)prop-2-en-1-one] here?
Answer: The IC50 was less than 10 nM.

Question: And the “Btk occupancy in vivo” value (Btk [2]; 10 mg/kg single oral dose)?
Answer: The value was “full occupancy”.

Question: And the “concentration sufficient” value (BTK [3])?
Answer: The value was 100 nM.

Question: `C=CC(=O)N1CCC[C@@H](n2nc(-c3ccc(Oc4cccc(Cl)c4F)cc3)c3cnccc32)C1` [Compound 20, (R)-1-(3-(3-(4-(3-chloro-2-fluorophenoxy)phenyl)-1H-pyrazolo[4,3-c]pyridin-1-yl)piperidin-1-yl)prop-2-en-1-one] was tested. Which IC50 (BTK [1]) did it give?
Answer: Its IC50 is less than 10 nM.

Question: And the IC50 (Ramos cells)?
Answer: The IC50 was 10 to 100 nM.

Question: With `C=CC(=O)N1CCC[C@@H](n2nc3ccncc3c2-c2ccc(Oc3cccc(Cl)c3Cl)cc2)C1` [Compound 43, (R)-1-(3-(3-(4-(2,3-dichlorophenoxy)phenyl)-2H-pyrazolo[4,3-c]pyridin-2-yl)piperidin-1-yl)prop-2-en-1-one] as the compound, how does the IC50 (BTK [1]) read?
Answer: Its IC50 is less than 10 nM.

Question: What about the IC50 (Ramos cells) of the same compound?
Answer: The IC50 was 10 to 100 nM.

Question: What about the “concentration sufficient” value (BTK [3]) of the same compound?
Answer: Its value is 100 nM.

Question: Which IC50 (BTK [1]) does the source give for `C=CC(=O)N1CCCC1Cn1nc(-c2ccc(Oc3cccc(OC)c3F)cc2)c2cncc(OC)c21` (centres unmarked) [Compound 91, 1-(2-((3-(4-(2-fluoro-3-methoxyphenoxy)phenyl)-7-methoxy-1H-pyrazolo[4,3-c]pyridin-1-yl)methyl)pyrrolidin-1-yl)prop-2-en-1-one] here?
Answer: Its IC50 is less than 10 nM.

Question: And the “Btk occupancy in vivo” value (Btk [2]; 5 mg/kg single oral dose)?
Answer: Its value is “full occupancy”.

Question: With `C=CC(=O)N1CCC[C@@H](n2nc(-c3ccc(Oc4cccc(F)c4F)cc3)c3cnccc32)C1` [Compound 17, (R)-1-(3-(3-(4-(2,3-difluorophenoxy)phenyl)-1H-pyrazolo[4,3-c]pyridin-1-yl)piperidin-1-yl)prop-2-en-1-one] as the compound, how does the IC50 (BTK [1]) read?
Answer: Its IC50 is less than 10 nM.

Question: What about the IC50 (Ramos cells) of the same compound?
Answer: Its IC50 is 10 to 100 nM.

Question: What about the “concentration sufficient” value (BTK [3]) of the same compound?
Answer: Its value is 100 nM.

Question: Which results are given for `C=CC(=O)N1CCC[C@@H](n2nc(-c3ccc(Oc4cccc(F)c4)cc3)c3cnccc32)C1` [Compound 62, (R)-1-(3-(3-(4-(3-fluorophenoxy)phenyl)-1H-pyrazolo[4,3-c]pyridin-1-yl)piperidin-1-yl)prop-2-en-1-one]?
Answer: IC50 (BTK [1]): < 10 nM; IC50 (Ramos cells): 100 to 1000 nM

Question: What does the source list for `C=CC(=O)N1CC[C@@H](n2nc(-c3ccc(Oc4cccc(OC)c4F)cc3)c3cnccc32)C1` [Compound 3, (R)-1-(3-(3-(4-(2-fluoro-3-methoxyphenoxy)phenyl)-1H-pyrazolo[4,3-c]pyridin-1-yl)pyrrolidin-1-yl)prop-2-en-1-one]?
Answer: IC50 (BTK [1]): < 10 nM; Btk occupancy in vivo (Btk [2]; 10 mg/kg single oral dose): full occupancy; concentration sufficient to fully occupy the active site of Btk (BTK [3]): 50 nM

Question: `C=CC(=O)N1CC[C@@H](n2nc(-c3ccc(Oc4cccc(F)c4Cl)cc3)c3cnccc32)C1` [Compound 4, (R)-1-(3-(3-(4-(2-chloro-3-fluorophenoxy)phenyl)-1H-pyrazolo[4,3-c]pyridin-1-yl)pyrrolidin-1-yl)prop-2-en-1-one] was tested. Which IC50 (BTK [1]) did it give?
Answer: The IC50 was less than 10 nM.

Question: What about the “Btk occupancy in vivo” value (Btk [2]; 10 mg/kg single oral dose) of the same compound?
Answer: Its value is “full occupancy”.

Question: What about the “concentration sufficient” value (BTK [3]) of the same compound?
Answer: The value was 100 nM.

Question: Which IC50 (BTK [1]) does the source give for `C=CC(=O)N1CC[C@@H](n2nc(-c3ccc(Oc4ccccc4)c(F)c3)c3cnccc32)C1` [Compound 61, (R)-1-(3-(3-(3-fluoro-4-phenoxyphenyl)-1H-pyrazolo[4,3-c]pyridin-1-yl)pyrrolidin-1-yl)prop-2-en-1-one] here?
Answer: Its IC50 is less than 10 nM.

Question: And the IC50 (Ramos cells)?
Answer: The IC50 was 100 to 1000 nM.

Question: `C=CC(=O)N1CC[C@@H](n2nc3ccncc3c2-c2ccc(Oc3cccc(Cl)c3Cl)cc2)C1` [Compound 41, (R)-1-(3-(3-(4-(2,3-dichlorophenoxy)phenyl)-2H-pyrazolo[4,3-c]pyridin-2-yl)pyrrolidin-1-yl)prop-2-en-1-one] was tested. Which IC50 (BTK [1]) did it give?
Answer: Its IC50 is less than 10 nM.

Question: And the IC50 (Ramos cells)?
Answer: Its IC50 is 10 to 100 nM.

Question: And the “concentration sufficient” value (BTK [3])?
Answer: Its value is 100 nM.
